Series [1] addresses bCSE. The note with it: cited from earlier work.
A short description of series [2]: MTT test, cytotoxicity. It counts as cell-based. The note with it: human, HEK293T cells; MTT test, 72 h; concentration required to inhibit 50% cell culture growth; read-out: CC50 of compounds (HEK273T). On the procedure: (§1) HEK293T cells were grown in the DMEM:F12 (2:1) medium supplemented with 10% FBS (BioSera, Cholet, France), 2 mM L-glutamine, 100 U/mL penicillin and 100 μg/mL streptomycin in the presence of 5% CO2 at 37 °C. Cells were re-seeded every three days at a ratio of 1:3 or 1:5.
(§2) Stock solutions were diluted in DMSO (BioReagent of molecular biology grade, Sigma, St. Louis, MO, USA), and the final DMSO concentration was 1%. After 24 h (30–40% monolayer), the solutions of the studied compounds diluted at different concentrations were introduced to the culture medium. After the incubation at 37 °C in 5% CO2 for 72 h, a freshly prepared solution of thiazolyl blue tetrazolium bromide at a final concentration of 0.4 mg/mL was added to each well of the plate. Incubation was performed at +37 °C for 2 h. The medium containing unreacted MTT was removed via aspiration. The formed formazan dye was dissolved in 100 µL of isopropanol added to each well of the plate. The result of the analysis was evaluated using a Tecan Spark spectrophotometer (absorbance at 544 nm).

The subject of series [3] is B. subtilis 168 strain. The experiment in a line: Kanamycin A-potentiating activity, growth curves. In kind it is cell-based, Bacillus subtilis. The note with it: potentiator concentration in the presence of 0.25 µg Km (MICKm = 2 µg/mL); potentiator varied with an interval of 10 μM. On the procedure:
The potentiating properties and minimum inhibitory concentration (MIC) were assessed similarly to the testing with gentamicin, and additionally, the previously reported MNS1 was used for comparison (Figure 3). The MIC of kanamycin A for B. subtilis cells is 2 μg/mL. […] A lower cytotoxic effect on HEK273T culture (Table 1) allows us to conclude that MNS3 is the hit compound in the series (the experimental curves for CC50 estimation via the MTT test are given in the Supplementary Information File).
(§3) Gentamicin-potentiating activity testing of the compounds in B. subtilis. The growth curves of B. subtilis were obtained with a Bioscreen C automated growth curve analysis system (Oy Growth Curves Ab, Finland, Helsinki). The B. subtilis strain 168 was grown overnight in LB at 37 °C and diluted with fresh medium (1:100) containing the antibiotic and a test compound as specified in the text and figure captions. Aliquots (150 μL) of each mixture were added into plate wells in triplicate and incubated with continuous agitation at 37 °C. The optical density at 600 nm (OD600) was recorded automatically for 24 h. The results were averaged over three replicate experiments to plot the time dependences of bacterial growth.
Figure 3 Determination of the potentiating properties of compounds.

In series [4] the target is hCSE. Set-up: method as in PMID 34112687, PMID 37110802, doi:10.1016/j.mencom.2024.02.030, PMID 39970094, PMID 38771206. The note with it: Figure 1; cited from earlier work.
Series [5] relates to B. subtilis 168 strain. Set-up: method as in PMID 39970094. The note with it: parent MNS1, in the presence of 0.1 µg Gm; previously known data for gentamicin potentiation; cited from earlier work.
Series [6] deals with B. subtilis 168 strain. As to the kind of experiment: Gentamicin-potentiating activity, growth curves (Bioscreen C). In kind it is cell-based, Bacillus subtilis. The note with it: for MIC with Gm (B. subtilis): potentiator concentration in the presence of 0.1 µg Gm (0.1 MIC; MICGm = 1 µg/mL), potentiator varied with an interval of 10 μM. Here is the method: We selected the B. subtilis 168 strain as the model micro-organism to determine the potentiating properties of the new compounds. The active center of the proposed target protein, cystathionine γ-lyase, has a conservative structure for a wide range of micro-organisms, including pathogens; thus, B. subtilis can be used as a less toxic model object containing the CGL enzyme for testing. The efficiency of CGL inhibitors was assessed by the standard minimum inhibitory concentration (MIC) assay. The potentiating properties were investigated according to the technique reported previously for NL2 [10]. The MIC of gentamicin for B. subtilis cells is 1 μg/mL, which is consistent with known CLSI breakpoints for the genus Bacillus. […] In addition, we tested the effect of the compounds on the generation of hydrogen sulfide by the B. subtilis cell culture (Figure 2F). […] The latter effect, however, may be attributed to the presence of the sulfur atom in the structure of these inhibitors assuming their possible hydrolysis if not bound to the enzyme in the cellular environment.
as §3
Figure 2 Determination of the potentiating properties of compounds. Representative growth curves of B. subtilis 168 strain in the presence of 0.1 μg/mL gentamicin (Gm) and potentiators: MNS2 (A), MNS3 (B), MNS4 (C), MNS5 (D) and MNS6 (E). The cells were grown at 37 °C with aeration in a Bioscreen C automated growth assay system. The curves represent the mean values of three independent experiments with an error of <5%. Evaluation of hydrogen sulfide production by B. subtilis 168 cells in the presence of the potentiators studied (F): MNS2 (100 µM), MNS3 (90 µM), MNS4 (60 µM), MNS5 (60 µM) and MNS6 (100 µM). The filter paper strips soaked in 2% lead acetate solution show brown staining with PbS salt as a result of H2S evaporation by the bacterial suspension. The numbers indicate H2S production relative to wild-type cells. […]

The test system of series [7] is hydrogen sulfide production by B. subtilis 168 cells. The experiment in a line: Hydrogen sulfide generation, lead acetate paper strips. The note with it: B. subtilis cell culture, Figure 2F. In kind it is cell-based, Bacillus subtilis. Here is the method: The generation of hydrogen sulfide in B. subtilis cells was monitored according to the published protocol using lead acetate as a colorimetric sensor [29]. The inner surface of a cell culture flask was equipped above the level of the liquid with a standardized paper strip soaked with 2% aq. Pb(OAc)2. Overnight cultures were diluted with LB (1:50) and incubated at 37 °C under aeration conditions for 16–18 h. The test compounds (MNS1 and NL2) were used at 32 μM; LB without supplements was used as a negative control. Paper strips stained with the formed PbS precipitate were scanned using an AlphaImager gel imaging system (BioTechne, USA, Minneapolis, Minnesota). The results were normalized to the optical density of the culture.
Figure 2 Determination of the potentiating properties of compounds. Representative growth curves of B. subtilis 168 strain in the presence of 0.1 μg/mL gentamicin (Gm) and potentiators: MNS2 (A), MNS3 (B), MNS4 (C), MNS5 (D) and MNS6 (E). The cells were grown at 37 °C with aeration in a Bioscreen C automated growth assay system. The curves represent the mean values of three independent experiments with an error of <5%. Evaluation of hydrogen sulfide production by B. subtilis 168 cells in the presence of the potentiators studied (F): MNS2 (100 µM), MNS3 (90 µM), MNS4 (60 µM), MNS5 (60 µM) and MNS6 (100 µM). The filter paper strips soaked in 2% lead acetate solution show brown staining with PbS salt as a result of H2S evaporation by the bacterial suspension. The numbers indicate H2S production relative to wild-type cells. TEXT PRINTED IN THE PICTURE: (F) MNS2: 100% | (F) MNS3: >120% | (F) MNS4: >120% | (F) MNS5: <35% | (F) MNS6: <35% DOUBTS OF THE COPYIST ABOUT THIS PICTURE: Panel F: the picture prints no measure for the percentages, so they are given without one. / Panel F: the column "Control" (100%) is left out because it is not a substance.

Series [8] concerns HEK273T. The experiment in a line: MTT test, cytotoxicity. In kind it is cell-based. The note with it: in words, conclusions. Here is the method:
as §1, §2

In series [9] the test system is hCSE. Set-up: method as in PMID 34112687, PMID 37110802, doi:10.1016/j.mencom.2024.02.030, PMID 39970094, PMID 38771206. The note with it: Figure 1; cited from earlier work. The source holds these as a separate data set.
The test system of series [10] is bCSE. Set-up: method as in PMID 34112687, PMID 37110802, doi:10.1016/j.mencom.2024.02.030, PMID 39970094, PMID 38771206. The note with it: Figure 1; cited from earlier work.
Series [11] relates to B. subtilis cells. As to the kind of experiment: MIC of the antibiotic alone, microdilution method (CLSI). In kind it is cell-based, Bacillus subtilis. Here is the method:
Standardized MIC was determined using the microdilution method, as recommended by the Clinical and Laboratory Standards Institute (CLSI). […] The B. subtilis inoculate (100 μL) contained 1.0 × 10^6 CFU/mL. The minimum inhibitory concentration (MIC) was defined as the lowest antibiotic concentration that prevented turbidity in the inoculate following incubation at 37 °C for a duration of 24 h. Gentamycin was used at 0.1 μg/mL (10% of MIC) in further experiments.

Read-outs that look alike come from different tables or passages of the source.

Take `O=C(O)c1ccc(Cn2ccc3ccc(Br)cc32)cc1` [3h]: the Kd in [1] (Figure 1, read-out: KD (bCSE)) was 0.8 ± 0.3 µM.
`Nc1csc(Cn2ccc3ccc(Br)cc32)c1` [MNS1]: the CC50 at 72 h in series [2] is 30 µM. Further, the “MIC with Km (B. subtilis)” value in [3] was 100 µM. Further, the Kd was 0.59 ± 0.04 µM in series [1] (Figure 1, read-out: KD (bCSE)); around 0.6 µM in series [1] (introduction, read-out: binding constant with CGL); 11.6 ± 0.1 µM in series [4]. The “MIC with Gm (B. subtilis)” value in series [5] was around 50 µM.
In the case of `Nc1cc(Cn2ccc3ccc(Br)cc32)sc1C(=O)[O-].[K+]` [MNS2, Potassium 3-Amino-5-((6-bromo-1H-indol-1-yl)methyl)thiophene-2-carboxylate], the CC50 at 72 h in series [2] was determined as 25 µM. The “inhibition of B. subtilis growth in combinations with gentamicin” value in series [6] (concentration range from 50 to 100 µM) is listed as “failed to inhibit”. Also, the “rate of hydrogen sulfide generation compared to the control group of cells” value (“rate … compared to the control group of cells” below) in [7] is on record as “enhanced”.
Take `Nc1cc(Cn2ncc3ccc(Br)cc32)sc1C(=O)[O-].[K+]` [MNS3, Potassium 3-Amino-5-((6-bromo-1H-indazol-1-yl)methyl)thiophene-2-carboxylate]: the “cytotoxicity in HEK273T” value in series [8] is listed as “moderate cytotoxicity”. Moreover, in series [2], the CC50 at 72 h came to 190 µM. Moreover, in [3], the “MIC with Km (B. subtilis)” value stood at 90 µM. In addition, the “MIC with Gm (B. subtilis)” value in series [6] is around 90 µM. Further, the “rate … compared to the control group of cells” value in series [7] is recorded as “enhanced”.
As to `Nc1cc(Cn2cc3ccc(Br)cc3n2)sc1C(=O)[O-].[K+]` [MNS4, Potassium 3-Amino-5-((6-bromo-2H-indazol-2-yl)methyl)thiophene-2-carboxylate], in series [8], the “cytotoxicity in HEK273T” value is on record as “moderate cytotoxicity”. Also, the CC50 at 72 h in series [2] is 87 µM. Moreover, in series [3], the “MIC with Km (B. subtilis)” value stood at 70 µM. In addition, the “MIC with Gm (B. subtilis)” value in [6] was around 60 µM.
Take `Cc1oc(Cn2ncc3ccc(Br)cc32)cc1C(=O)O` [MNS5, 5-((6-Bromo-1H-indazol-1-yl)methyl)-2-methylfuran-3-carboxylic Acid]: in series [2], the CC50 at 72 h is 250 µM. Also, the “MIC with Km (B. subtilis)” value in [3] turned out to be 100 µM. Moreover, in [6], the “MIC with Gm (B. subtilis)” value was around 60 µM. The “rate … compared to the control group of cells” value in [7] is given as “significantly reduced”.
With `Cc1oc(Cn2cc3ccc(Br)cc3n2)cc1C(=O)O` [MNS6, 5-((6-Bromo-2H-indazol-2-yl)methyl)-2-methylfuran-3-Carboxylic Acid], the cytotoxic concentration (CC50) at 72 h in series [2] was found to be 260 µM. In addition, in [7], the “rate … compared to the control group of cells” value is listed as “significantly reduced”.
With `O=C(O)CNC(=O)Cn1ccc2ccc(Br)cc21` [NL1], the IC50 in series [9] is 29.2 ± 2 µM; in [10], 5.8 ± 2.7 µM.
For `Cc1oc(Cn2ccc3ccc(Br)cc32)cc1C(=O)O` [NL2], the figures for the IC50 in [9] and in [10] were 25.3 ± 2.6 µM and 1.8 ± 0.5 µM, respectively. In addition, the Kd in [1] (Figure 1, marked "our data", read-out: KD (bCSE)) was 1.1 ± 0.3 µM.
`O=C(O)c1cc(Cn2ccc3ccc(-c4cc5cccc(Cl)c5s4)cc32)n[nH]1` [NL3]: the IC50 in series [9] was 3.4 ± 0.8 µM; in series [10] it was 0.7 ± 0.2 µM.
As for `CNC(C)C1CCC(N)C(OC2C(N)CC(N)C(OC3OCC(C)(O)C(NC)C3O)C2O)O1` (stereo not shown) [gentamicin], in series [11] (Bacillus subtilis, 37 °C, 24 h, read-out: MIC of gentamicin for B. subtilis cells), the minimal inhibitory concentration (MIC) was 1 µg/mL.
Consider kanamycin A, for which, in series [11], the “MIC of kanamycin A for B. subtilis cells” value turned out to be 2 µg/mL.

These data come from article PMC11767297, “6-Bromoindole- and 6-Bromoindazole-Based Inhibitors of Bacterial Cystathionine γ-Lyase Containing 3-Aminothiophene-2-Carboxylate Moiety” (Molecules, 2025).
